From publication PMC6757289, “Design and Characterization of SGK3-PROTAC1, an Isoform Specific SGK3 Kinase PROTAC Degrader” (ACS Chemical Biology, 2019)
Where two headings read alike, the source gives them in different places.

Experiments:
Assay in all cases: kinase profiling panel
Assay type in all cases: biochemical
Conditions in all cases: read-out: % Activity Remaining
[1] = biological target: EPH-A2 (Homo sapiens, UniProt P29317)
Source text: (§1) Protein kinase profiling against a Dundee panel of 140 protein kinases was undertaken at the International Centre for Protein Kinase Profiling. The result for each kinase was presented as a mean kinase activity of the reaction taken in triplicate relative to a control sample treated with DMSO. Assay conditions and abbreviations are available at http://www.kinase-screen.mrc.ac.uk.

[2] = biological target: T1, EPH-B2 (Homo sapiens, UniProt P29323)
T1 sequence (P29323 19-1055): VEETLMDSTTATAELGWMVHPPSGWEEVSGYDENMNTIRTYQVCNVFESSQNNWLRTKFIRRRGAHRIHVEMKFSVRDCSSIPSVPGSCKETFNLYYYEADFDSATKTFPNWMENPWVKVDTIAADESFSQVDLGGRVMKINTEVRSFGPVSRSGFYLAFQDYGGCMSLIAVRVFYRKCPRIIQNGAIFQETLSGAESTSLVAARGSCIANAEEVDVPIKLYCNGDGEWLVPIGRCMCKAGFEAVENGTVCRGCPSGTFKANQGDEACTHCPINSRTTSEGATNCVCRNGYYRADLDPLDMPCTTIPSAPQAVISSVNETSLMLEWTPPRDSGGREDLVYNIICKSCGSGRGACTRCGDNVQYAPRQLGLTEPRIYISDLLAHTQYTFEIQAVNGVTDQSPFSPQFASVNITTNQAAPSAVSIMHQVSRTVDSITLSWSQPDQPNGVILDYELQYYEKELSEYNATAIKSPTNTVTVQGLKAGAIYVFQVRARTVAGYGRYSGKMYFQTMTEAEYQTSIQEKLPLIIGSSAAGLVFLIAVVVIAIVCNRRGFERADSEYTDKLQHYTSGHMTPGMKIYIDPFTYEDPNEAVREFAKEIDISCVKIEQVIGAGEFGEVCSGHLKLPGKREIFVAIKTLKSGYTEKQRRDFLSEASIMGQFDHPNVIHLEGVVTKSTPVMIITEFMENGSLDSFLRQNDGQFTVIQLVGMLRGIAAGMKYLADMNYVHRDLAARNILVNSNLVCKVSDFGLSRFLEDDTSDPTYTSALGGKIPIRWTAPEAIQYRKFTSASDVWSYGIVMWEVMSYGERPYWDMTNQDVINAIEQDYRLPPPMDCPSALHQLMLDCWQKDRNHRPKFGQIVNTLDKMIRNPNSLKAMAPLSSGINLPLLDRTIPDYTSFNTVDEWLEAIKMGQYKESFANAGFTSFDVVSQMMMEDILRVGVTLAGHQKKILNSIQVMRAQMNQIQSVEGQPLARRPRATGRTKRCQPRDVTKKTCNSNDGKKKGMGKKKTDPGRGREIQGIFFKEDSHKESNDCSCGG
Source text: as §1

[3] = biological target: T2, GCK (Homo sapiens, UniProt Q12851)
T2 sequence (Q12851 1-820): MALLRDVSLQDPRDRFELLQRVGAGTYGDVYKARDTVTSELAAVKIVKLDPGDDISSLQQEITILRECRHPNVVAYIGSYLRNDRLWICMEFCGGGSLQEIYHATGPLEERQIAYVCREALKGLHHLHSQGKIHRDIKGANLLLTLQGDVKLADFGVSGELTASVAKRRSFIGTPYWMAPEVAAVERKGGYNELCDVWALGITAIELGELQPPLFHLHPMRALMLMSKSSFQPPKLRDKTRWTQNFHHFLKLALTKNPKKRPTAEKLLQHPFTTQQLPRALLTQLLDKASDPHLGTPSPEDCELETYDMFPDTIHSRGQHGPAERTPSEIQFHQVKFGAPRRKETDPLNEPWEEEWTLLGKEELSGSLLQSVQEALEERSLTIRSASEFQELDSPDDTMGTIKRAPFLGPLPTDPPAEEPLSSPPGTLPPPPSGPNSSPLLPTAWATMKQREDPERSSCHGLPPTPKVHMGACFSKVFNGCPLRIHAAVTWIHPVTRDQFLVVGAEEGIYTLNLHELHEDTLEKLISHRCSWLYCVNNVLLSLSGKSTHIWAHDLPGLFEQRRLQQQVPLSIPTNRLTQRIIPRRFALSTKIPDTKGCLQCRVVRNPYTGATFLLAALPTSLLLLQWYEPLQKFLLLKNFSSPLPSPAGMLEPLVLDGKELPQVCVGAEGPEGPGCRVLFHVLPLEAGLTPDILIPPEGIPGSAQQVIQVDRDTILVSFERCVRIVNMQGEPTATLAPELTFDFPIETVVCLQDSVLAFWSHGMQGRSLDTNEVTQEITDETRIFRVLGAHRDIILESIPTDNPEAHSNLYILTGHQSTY
Source text: as §1

[4] = biological target: HIPK3 (Homo sapiens, UniProt Q9H422)
Source text: as §1

[5] = biological target: Lck (Homo sapiens, UniProt P06239)
Source text: as §1

[6] = biological target: MAPKAP-K2 (Homo sapiens, UniProt P49137)
Source text: as §1

[7] = biological target: MELK (Homo sapiens, UniProt Q14680)
Source text: as §1

[8] = biological target: MLK1 (Homo sapiens, UniProt P80192)
Source text: as §1

[9] = biological target: ROCK 2 (Homo sapiens, UniProt O75116)
Source text: as §1

[10] = biological target: p38 beta MAPK (Homo sapiens, UniProt Q15759)
Source text: as §1

[11] = biological target: T3, p38 delta MAPK (Homo sapiens, UniProt O15264)
T3 sequence (O15264 1-365): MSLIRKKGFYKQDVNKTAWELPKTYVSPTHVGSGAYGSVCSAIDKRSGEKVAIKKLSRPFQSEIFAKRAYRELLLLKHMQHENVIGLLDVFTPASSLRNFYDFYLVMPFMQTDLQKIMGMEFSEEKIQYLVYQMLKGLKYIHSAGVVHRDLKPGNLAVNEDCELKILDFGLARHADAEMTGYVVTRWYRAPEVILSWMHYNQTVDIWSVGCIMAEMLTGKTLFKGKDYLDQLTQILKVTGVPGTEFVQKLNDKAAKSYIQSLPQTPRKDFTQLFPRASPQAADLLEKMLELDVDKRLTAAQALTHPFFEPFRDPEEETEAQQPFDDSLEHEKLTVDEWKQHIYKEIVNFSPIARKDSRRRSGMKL
Source text: as §1

ROCK 2, sequence (O75116 whole entry): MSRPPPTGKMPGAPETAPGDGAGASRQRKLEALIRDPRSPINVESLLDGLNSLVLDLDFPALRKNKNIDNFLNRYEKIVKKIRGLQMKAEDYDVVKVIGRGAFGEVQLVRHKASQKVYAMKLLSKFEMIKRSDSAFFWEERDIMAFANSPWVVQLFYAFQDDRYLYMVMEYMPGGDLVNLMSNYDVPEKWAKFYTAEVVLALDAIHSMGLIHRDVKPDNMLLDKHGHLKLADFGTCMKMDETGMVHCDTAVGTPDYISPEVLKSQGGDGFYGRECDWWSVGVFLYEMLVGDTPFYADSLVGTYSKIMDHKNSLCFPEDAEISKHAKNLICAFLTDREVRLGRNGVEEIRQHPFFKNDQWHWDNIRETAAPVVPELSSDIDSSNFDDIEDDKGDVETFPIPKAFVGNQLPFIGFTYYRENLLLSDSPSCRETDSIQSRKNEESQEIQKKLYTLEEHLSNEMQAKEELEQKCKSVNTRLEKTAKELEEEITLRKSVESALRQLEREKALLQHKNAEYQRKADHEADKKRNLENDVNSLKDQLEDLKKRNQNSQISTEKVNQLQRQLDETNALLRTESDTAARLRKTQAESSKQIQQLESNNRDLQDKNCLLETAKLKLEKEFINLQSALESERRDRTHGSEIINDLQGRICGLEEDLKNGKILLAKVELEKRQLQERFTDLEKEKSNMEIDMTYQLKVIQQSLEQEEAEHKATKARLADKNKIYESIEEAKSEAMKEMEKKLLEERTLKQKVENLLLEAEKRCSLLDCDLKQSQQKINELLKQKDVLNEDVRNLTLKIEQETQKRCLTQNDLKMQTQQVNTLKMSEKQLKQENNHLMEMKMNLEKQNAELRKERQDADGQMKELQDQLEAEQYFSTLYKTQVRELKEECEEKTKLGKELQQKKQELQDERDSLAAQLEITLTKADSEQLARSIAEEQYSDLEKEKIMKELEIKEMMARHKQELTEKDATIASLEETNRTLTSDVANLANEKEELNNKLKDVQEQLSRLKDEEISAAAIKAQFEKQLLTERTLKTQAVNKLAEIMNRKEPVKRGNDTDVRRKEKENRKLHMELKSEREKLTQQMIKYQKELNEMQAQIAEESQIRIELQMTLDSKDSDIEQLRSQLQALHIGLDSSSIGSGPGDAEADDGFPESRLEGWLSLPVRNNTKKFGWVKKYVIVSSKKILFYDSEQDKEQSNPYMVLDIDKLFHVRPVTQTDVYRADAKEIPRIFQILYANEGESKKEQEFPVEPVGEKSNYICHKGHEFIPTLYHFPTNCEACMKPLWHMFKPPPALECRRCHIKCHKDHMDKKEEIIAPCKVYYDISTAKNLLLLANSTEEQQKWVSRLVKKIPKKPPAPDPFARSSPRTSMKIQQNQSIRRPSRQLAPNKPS
Lck, sequence (P06239 whole entry): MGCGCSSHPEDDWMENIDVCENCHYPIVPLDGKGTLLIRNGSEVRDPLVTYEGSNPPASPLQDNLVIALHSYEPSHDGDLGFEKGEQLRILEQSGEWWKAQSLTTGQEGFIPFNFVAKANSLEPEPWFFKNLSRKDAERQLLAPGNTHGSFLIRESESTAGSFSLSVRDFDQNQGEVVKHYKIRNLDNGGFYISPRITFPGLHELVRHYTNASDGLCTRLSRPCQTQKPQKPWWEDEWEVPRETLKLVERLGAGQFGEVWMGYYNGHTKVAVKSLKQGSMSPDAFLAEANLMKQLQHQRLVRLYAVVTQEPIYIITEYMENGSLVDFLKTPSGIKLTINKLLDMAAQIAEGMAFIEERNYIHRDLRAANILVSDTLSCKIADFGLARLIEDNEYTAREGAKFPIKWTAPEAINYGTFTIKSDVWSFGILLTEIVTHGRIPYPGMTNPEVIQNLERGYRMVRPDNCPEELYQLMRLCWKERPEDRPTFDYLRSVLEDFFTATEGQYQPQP
HIPK3, sequence (Q9H422 whole entry): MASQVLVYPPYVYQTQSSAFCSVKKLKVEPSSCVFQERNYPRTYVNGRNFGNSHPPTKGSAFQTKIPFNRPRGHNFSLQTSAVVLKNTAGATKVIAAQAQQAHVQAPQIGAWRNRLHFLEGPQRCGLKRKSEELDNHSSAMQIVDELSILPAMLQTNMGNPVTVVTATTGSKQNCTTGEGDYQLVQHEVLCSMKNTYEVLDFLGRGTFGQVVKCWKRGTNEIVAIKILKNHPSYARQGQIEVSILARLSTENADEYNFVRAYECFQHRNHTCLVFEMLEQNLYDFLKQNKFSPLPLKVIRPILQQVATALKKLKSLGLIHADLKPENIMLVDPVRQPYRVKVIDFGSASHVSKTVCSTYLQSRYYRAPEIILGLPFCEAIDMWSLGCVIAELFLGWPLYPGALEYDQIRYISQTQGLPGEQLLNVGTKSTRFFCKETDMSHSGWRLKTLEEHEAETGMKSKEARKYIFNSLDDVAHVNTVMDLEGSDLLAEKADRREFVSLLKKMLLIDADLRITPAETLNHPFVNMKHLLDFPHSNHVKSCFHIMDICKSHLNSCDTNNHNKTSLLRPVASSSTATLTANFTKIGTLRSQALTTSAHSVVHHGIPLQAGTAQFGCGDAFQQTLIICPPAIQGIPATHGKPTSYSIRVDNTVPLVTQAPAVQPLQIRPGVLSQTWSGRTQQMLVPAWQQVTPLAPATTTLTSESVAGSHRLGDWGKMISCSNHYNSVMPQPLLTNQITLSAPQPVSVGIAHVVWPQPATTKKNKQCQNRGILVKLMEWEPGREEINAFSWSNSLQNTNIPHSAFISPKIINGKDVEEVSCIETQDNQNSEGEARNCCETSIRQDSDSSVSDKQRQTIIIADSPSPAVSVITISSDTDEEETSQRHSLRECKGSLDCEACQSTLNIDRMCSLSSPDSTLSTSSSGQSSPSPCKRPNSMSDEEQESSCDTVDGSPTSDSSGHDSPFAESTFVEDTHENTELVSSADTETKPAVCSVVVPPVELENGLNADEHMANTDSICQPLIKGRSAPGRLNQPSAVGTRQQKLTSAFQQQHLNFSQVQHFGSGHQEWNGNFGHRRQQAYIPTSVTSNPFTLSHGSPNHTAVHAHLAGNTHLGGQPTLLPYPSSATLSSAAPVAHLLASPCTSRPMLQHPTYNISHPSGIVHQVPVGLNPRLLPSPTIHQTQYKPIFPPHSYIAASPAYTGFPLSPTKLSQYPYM
MAPKAP-K2, sequence (P49137 whole entry): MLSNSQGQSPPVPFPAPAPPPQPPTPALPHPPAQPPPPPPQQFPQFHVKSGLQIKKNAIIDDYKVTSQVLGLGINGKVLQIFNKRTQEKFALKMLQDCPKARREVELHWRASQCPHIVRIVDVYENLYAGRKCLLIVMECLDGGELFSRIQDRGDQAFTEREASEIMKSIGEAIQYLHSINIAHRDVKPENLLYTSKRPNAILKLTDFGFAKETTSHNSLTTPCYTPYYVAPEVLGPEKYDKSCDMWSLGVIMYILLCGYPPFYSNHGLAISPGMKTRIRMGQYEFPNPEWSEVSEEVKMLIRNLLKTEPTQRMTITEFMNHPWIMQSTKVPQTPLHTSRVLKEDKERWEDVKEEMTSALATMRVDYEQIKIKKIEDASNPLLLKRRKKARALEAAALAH
EPH-A2, sequence (P29317 24-976): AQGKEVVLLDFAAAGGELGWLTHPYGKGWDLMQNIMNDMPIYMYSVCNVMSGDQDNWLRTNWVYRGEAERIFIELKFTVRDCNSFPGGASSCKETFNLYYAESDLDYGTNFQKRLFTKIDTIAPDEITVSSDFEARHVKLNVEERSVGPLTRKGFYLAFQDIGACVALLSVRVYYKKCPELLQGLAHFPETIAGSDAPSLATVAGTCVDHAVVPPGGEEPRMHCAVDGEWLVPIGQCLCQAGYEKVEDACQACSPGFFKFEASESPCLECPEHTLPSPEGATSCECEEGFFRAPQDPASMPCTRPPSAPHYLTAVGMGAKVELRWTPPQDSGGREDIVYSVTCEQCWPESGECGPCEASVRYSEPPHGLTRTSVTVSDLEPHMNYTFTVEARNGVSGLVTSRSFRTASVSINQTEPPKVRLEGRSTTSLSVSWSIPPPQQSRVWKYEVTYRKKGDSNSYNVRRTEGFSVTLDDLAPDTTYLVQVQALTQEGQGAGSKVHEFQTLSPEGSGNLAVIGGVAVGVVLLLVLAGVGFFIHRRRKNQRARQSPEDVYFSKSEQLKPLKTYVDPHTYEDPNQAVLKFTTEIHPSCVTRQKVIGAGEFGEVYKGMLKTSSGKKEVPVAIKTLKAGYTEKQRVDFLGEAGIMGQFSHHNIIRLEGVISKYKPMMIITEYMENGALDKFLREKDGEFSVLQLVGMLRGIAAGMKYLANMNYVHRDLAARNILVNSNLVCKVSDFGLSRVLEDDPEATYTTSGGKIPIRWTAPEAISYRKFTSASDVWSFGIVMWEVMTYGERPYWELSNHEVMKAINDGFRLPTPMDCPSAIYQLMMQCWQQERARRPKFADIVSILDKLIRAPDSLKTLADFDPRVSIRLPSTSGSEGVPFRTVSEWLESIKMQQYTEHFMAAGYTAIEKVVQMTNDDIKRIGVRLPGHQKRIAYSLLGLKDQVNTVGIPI
p38 beta MAPK, sequence (Q15759 whole entry): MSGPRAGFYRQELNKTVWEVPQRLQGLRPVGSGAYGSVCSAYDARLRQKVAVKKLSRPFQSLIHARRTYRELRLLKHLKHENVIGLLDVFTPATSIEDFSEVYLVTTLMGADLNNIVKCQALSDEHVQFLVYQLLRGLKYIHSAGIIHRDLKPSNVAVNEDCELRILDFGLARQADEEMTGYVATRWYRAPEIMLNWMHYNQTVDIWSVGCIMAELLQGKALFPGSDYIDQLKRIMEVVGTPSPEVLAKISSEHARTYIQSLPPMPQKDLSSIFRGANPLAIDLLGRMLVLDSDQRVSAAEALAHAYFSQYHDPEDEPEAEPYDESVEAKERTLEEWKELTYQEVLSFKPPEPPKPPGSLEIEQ

Structure (SMILES)	remaining activity at 1 µM ([1]; 1 µM)	remaining activity at 1 µM ([2]; 1 µM)	remaining activity at 1 µM ([3]; 1 µM)	remaining activity at 1 µM ([4]; 1 µM)	remaining activity at 1 µM ([5]; 1 µM)	remaining activity at 1 µM ([6]; 1 µM)	remaining activity at 1 µM ([7]; 1 µM)	remaining activity at 1 µM ([8]; 1 µM)	remaining activity at 1 µM ([9]; 1 µM)	remaining activity at 1 µM ([10]; 1 µM)	remaining activity at 1 µM ([11]; 1 µM)	remaining activity at 1 µM [1]	remaining activity at 1 µM [2]	remaining activity at 1 µM [3]	remaining activity at 1 µM [4]	remaining activity at 1 µM [5]	remaining activity at 1 µM [6]	remaining activity at 1 µM [7]	remaining activity at 1 µM [8]	remaining activity at 1 µM [9]	further results
Cc1ccc(F)c(S(=O)(=O)Nc2ccc(-c3nc(OC[C@H]4CN(CCCCCCOCCOCCOCC(=O)N[C@H](C(=O)N5C[C@H](O)C[C@H]5C(=O)NCc5ccc(-c6scnc6C)cc5)C(C)(C)C)CCO4)c4cn[nH]c4n3)cc2)c1 [SGK3-PROTAC1]	94%	94%	99%	111%	124%	86%	91%	82%	113%	107%	103%	–	–	–	–	–	–	–	–	–	–
Cc1ccc(F)c(S(=O)(=O)Nc2ccc(-c3nc(OC[C@H]4CNCCO4)c4cn[nH]c4n3)cc2)c1 [308-R, reference compound]	–	–	–	–	–	–	–	–	–	–	–	113%	56%	80%	44%	98%	83%	19%	16%	74%	remaining activity at 1 µM [10]: 116%; remaining activity at 1 µM [11]: 126%
COc1ccc(Cl)c(S(=O)(=O)Nc2ccc(-c3nc(OC[C@H]4CNCCO4)c4c(C)n[nH]c4n3)cc2)c1 [290-R, reference compound]	–	–	–	–	–	–	–	–	–	–	–	109%	120%	90%	109%	89%	87%	11%	9%	105%	remaining activity at 1 µM [10]: 99%; remaining activity at 1 µM [11]: 111%
Cc1ccc(F)c(S(=O)(=O)Nc2ccc(-c3nc(OC[C@H]4CN(CCCCCCOCCOCCOCC(=O)N[C@H](C(=O)N5C[C@@H](O)C[C@H]5C(=O)NCc5ccc(-c6scnc6C)cc5)C(C)(C)C)CCO4)c4cn[nH]c4n3)cc2)c1 [cisSGK3-PROTAC1]	104%	97%	96%	105%	116%	92%	100%	94%	119%	112%	121%	–	–	–	–	–	–	–	–	–	–
